Experimental data reported in US20210169078A1, “AGENT FOR SUPPRESSING MICROBIAL GROWTH, METHOD FOR PREVENTING MICROBIAL CONTAMINATION, AND BEVERAGE” (priority 2018, published 2021).
In brackets after ≈: the same amount, converted by molar mass.

Assays:
Format in all cases: cell-based
[1] = test system: Bacillus cereus (Bacillus cereus IFO 13494); test: Agar plate dilution MIC test; conditions: IFO13494, Mueller Hinton Agar, 37 ± 1 °C, 18 to 20 hours, aerobic
[2] = test system: Bacillus welchii (Clostridium perfringens JCM 1290); test: organism not typed; conditions: 24 h
[3] = test system: Thermo-Acidophilic Bacilli (Alicyclobacillus acidoterrestris ATCC 49025); test: Agar plate dilution MIC test; conditions: ATCC49025, 120 h, YSG agar medium, 50 ± 1 °C, 5 days, aerobic
[4] = test system: Staphylococcus aureus (Staphylococcus aureus subsp. aureus NBRC 12732); test: Agar plate dilution MIC test; conditions: NBRC12732, Mueller Hinton Agar, 37 ± 1 °C, 18 to 20 hours, aerobic
[5] = test system: Clostridium difficile (spores) (Clostridium difficile ATCC 9689); test: Agar plate dilution MIC test; conditions: Clostridioides difficile, ATCC9689; Clostridium difficile ATCC 9689 (spores); taurocholic acid-containing BHIA medium, 37 ± 1 °C, 18 to 20 hours, anaerobic

Molecule `COc1cc(O)c(CC=C(C)C)c2c1C(=O)CC(c1ccc(O)cc1)O2` (centres unmarked) [Isoxanthohumol] has an MIC [1] of 50 µg/mL (≈ 141 µM), an MIC [2] of 50 µg/mL (≈ 141 µM) and an MIC [3] of 25 µg/mL (≈ 70.5 µM). It also gave an MIC [4] of 50 µg/mL (≈ 141 µM) and an MIC [5] of 50 µg/mL (≈ 141 µM).
